Molecular target: T1, Recombinant human H-PGDS (Homo sapiens, UniProt O60760)
T1 construct: made in house; host or cells: E. coli
Assay: H-PGDS inhibitory activity (prostaglandin D2 production from prostaglandin H2, measured by LC-MS/MS)
Assay type: biochemical
Conditions: recombinant human H-PGDS 1.0 nM expressed in E. coli; prostaglandin H2 25 μM; preincubated 15 minutes on ice, reacted on ice for 1 minute; concentration that inhibits prostaglandin D2 production by 50%
Outline: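 PGD2 formed from 25 µM prostaglandin H2 during a 1-min on-ice reaction was measured by LC-MS/MS after an FeCl2/citric acid stop. The enzyme was 1.0 nM E. coli-expressed human H-PGDS in Tris-HCl pH 8.0 buffer with MgCl2, reduced glutathione and γ-globulin, preincubated with compound for 15 min on ice. Production was normalised to DMSO controls minus the no-enzyme background.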

T1 sequence (O60760 whole entry): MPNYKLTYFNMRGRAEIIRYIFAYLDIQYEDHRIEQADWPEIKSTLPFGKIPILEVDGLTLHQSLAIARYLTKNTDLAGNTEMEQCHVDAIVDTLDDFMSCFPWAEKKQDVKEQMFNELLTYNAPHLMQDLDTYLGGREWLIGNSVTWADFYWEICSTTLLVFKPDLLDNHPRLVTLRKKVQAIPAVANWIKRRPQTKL

IC50 [nM]	Compound
25	O=C(NC[C@H]1CC[C@@H](O)CC1)c1ccc(-c2nccc3occc23)cc1 [Example 114, 4-(furo[3,2-c]pyridin-4-yl)-N-[(cis-4-hydroxycyclohexyl)methyl]benzamide]
27	O=C(NCc1ccccc1)c1ccc(-c2nccc3occc23)cc1 [Example 67, N-benzyl-4-(furo[3,2-c]pyridin-4-yl)benzamide]
12	O=C(NCC1CCCO1)c1ccc(-c2nccc3occc23)cc1 (centres unmarked) [Example 94, 4-(furo[3,2-c]pyridin-4-yl)-N-[(tetrahydro-furan-2-yl)methyl] benzamide]
31	CC(O)CNC(=O)c1ccc(-c2nccc3sccc23)cc1 (centres unmarked) [Example 61, N-(2-hydroxypropyl)-4-(thieno[3,2-c]pyridin-4-yl)benzamide]
1.6	COC(=O)[C@H]1CC[C@H](NC(=O)c2ccc(-c3nccc4occc34)cc2)CC1 [Example 261, Methyl trans-4-[4-(furo[3,2-c]pyridin-4-yl)benzamide]cyclohexane-1-carboxylate]
21	O=C(NC[C@H]1C[C@H](O)C1)c1ccc(-c2nccc3occc23)cc1 [Example 218, 4-(furo[3,2-c]pyridin-4-yl)-N-[(trans-3-hydroxycyclobutyl)methyl]benzamide]
1.2	Cn1cc(N2CCC(NC(=O)c3ccc(-c4nccc5occc45)cc3)CC2)cn1 [Example 252, 4-(furo[3,2-c]pyridin-4-yl)-N-[1-(1-methyl-1H-pyrazol-4-yl)piperidin-4-yl]benzamide]
0.76	O=C(NC1CCN(c2cccnn2)CC1)c1ccc(-c2nccc3occc23)cc1 [Example 190, 4-(furo[3,2-c]pyridin-4-yl)-N-[1-(pyridazin-3-yl)piperidin-4-yl]benzamide]
2	C[C@]1(O)CC[C@H](NC(=O)c2ccc(-c3nccc4occc34)cc2)CC1 [Example 259, 4-(furo[3,2-c]pyridin-4-yl)-N-(trans-4-hydroxy-4-methylcyclohexyl)benzamide]
2.5	O=C(NC1CN(c2ccccn2)C1)c1ccc(-c2nccc3occc23)cc1 [Example 113, 4-(furo[3,2-c]pyridin-4-yl)-N-[1-(pyridin-2-yl)azetidin-3-yl]benzamide]
0.63	CCn1nccc1CNC(=O)c1ccc(-c2nccc3[nH]ccc23)cc1 [Example 51, N-[(1-ethyl-1H-pyrazol-5-yl)methyl]-4-(1H-pyrrolo[3,2-c]pyridin-4-yl)benzamide]
1.1	NS(=O)(=O)c1ccc(CCNC(=O)c2ccc(-c3nccc4[nH]ccc34)cc2)cc1 [Example 47, 4-(1H-pyrrolo[3,2-c]pyridin-4-yl)-N-(4-sulfamoylphenethyl) benzamide]
1.5	CCC(O)[C@H]1CC[C@H](NC(=O)c2ccc(-c3nccc4occc34)cc2)CC1 (stereo partly drawn) [Example 308, 4-(furo[3,2-c]pyridin-4-yl)-N-[trans-4-(1-hydroxypropyl)cyclohexyl]benzamide]
2.6	O=C(NC1CCN(c2cccc(=O)[nH]2)CC1)c1ccc(-c2nccc3occc23)cc1 [Example 172, 4-(furo[3,2-c]pyridin-4-yl)-N-[1-(6-oxo-1,6-dihydropyridin-2-yl)piperidin-4-yl]benzamide]
12	O=C(NCc1ccncc1)c1ccc(-c2nccc3occc23)cc1 [Example 72, 4-(furo[3,2-c]pyridin-4-yl)-N-(pyridin-4-ylmethyl) benzamide]
2.3	N#CN1CCC(NC(=O)c2ccc(-c3nccc4occc34)cc2)CC1 [Example 247, N-(1-cyanopiperidin-4-yl)-4-(furo[3,2-c]pyridin-4-yl)benzamide]
0.9	[2H]C([2H])(O)c1cc2occc2c(-c2ccc(C(=O)N[C@H]3CC[C@H](C(C)(C)O)CC3)cc2)n1 [Example 320, 4-[6-(hydroxymethyl-d2)furo[3,2-c]pyridin-4-yl]-N-[trans-4-(2-hydroxypropan-2-yl)cyclohexyl]benzamide]
